# Earlier results as cited in paper PMC8278929 (Chemical Science, 2021).
# Assays:
# [1] = free, uncoordinated alcohol, no reference given
# [2] = analogue of 11
# [3] = in PBS, Os/pyr/for 1:200:400
molecule,measurement,setting,value
OCCCc1ccccc1 [3-phenyl-1-propanol],estimated pKa,[1],ca. 16
[Os(η^6-C6H5C6H5)(4-Me-pico)Cl]^+,ΔS^‡ (entropy of hydrolysis),[2],−55.6 ± 1.6 J K^−1 mol^−1
[Os(η^6-p-cymene)(TsDPEN)],TOFmax,[3],1.5 h⁻¹
